Entries after “also recorded” stand apart in the source; their conditions may differ. Where no end group is shown, it is not given here.
What was measured:
[1] = system: A. baumannii; assay: MIC and MBC by media dilution test and subculture (CLSI); type: cell-based, Acinetobacter baumannii
Experimental: In Example 2, in order to confirm the antibacterial effect of octopromycin on A. baumannii bacteria having multi-drug resistance, a minimum inhibitory concentration (MIC) and a minimum bactericidal concentration (MBC) of octopromycin were confirmed.
The MIC and MBC levels of octopromycin in A. baumannii were determined using media dilution tests and subcultures, respectively, according to the guidelines of the Clinical and Laboratory Standards Institute (CLSI, 2008 M27-A3). Several concentrations of octopromycin (0, 5, 10, 25, 50, 100, and 200 μg/mL) were tested as standard antibiotics (positive control) together with chloramphenicol (10 μg/mL, Sigma-Aldrich, USA) acting on A. baumannii growth and the MBC of chloramphenicol was confirmed according to the same procedure. The MIC was determined as the minimum concentration required to inhibit visual growth of A. baumannii. […] For analysis of time-kill kinetics, A. baumannii was cultured with octopromycin at various concentrations (0, 25, 50, 100, and 200 μg/mL) in the TSA medium at 25° C., and at different time intervals (0, 3, 6, 9, 12, 18, and 21 h), the absorbance was measured at 595 nm using a microplate reader (Bio-Rad, Saint Louis, USA) to confirm an inhibitory effect after culturing.

[2] = system: A. baumannii; assay: FE-SEM analysis of morphological and ultrastructural changes; type: cell-based, Acinetobacter baumannii; conditions: MIC (50 μg/mL) and MBC (200 μg/mL), 9 hours
Experimental: To understand a mode of action of octopromycin, FE-SEM analysis was performed at MIC and MBC concentrations to estimate the ultrastructure changes of A. baumannii.
First, A. baumannii cells were treated with octopromycin at MIC (50 μg/mL) and MBC (200 μg/mL) for 9 hours. As a negative control group, an untreated A. baumannii culture solution was used, and all other steps were performed identically for the sample. Subsequently, the culture solution was centrifuged at 3500 rpm […] and the pellet was washed with phosphate saline buffer PBS and prefixed with 2.5% glutaraldehyde for 30 minutes. Then, the prefixed cells were washed with PBS and continuously dehydrated using ethanol (30, 50, 70, 80, 90, and 100%). The fixed cells were dried and coated with platinum using an ion sputter (E-1030, Hitachi, Japan).

[3] = system: A. baumannii biofilm; assay: Eradication of already formed biofilm (crystal violet staining); type: cell-based, Acinetobacter baumannii; conditions: 24 hours after treatment
Experimental: Next, the effect of octopromycin on biofilm eradication in A. baumannii was confirmed. To measure the eradication effect of the already formed biofilm, 100 μL of A. baumannii (5×10^5 CFU/mL) was cultured in TSB for 24 hours. The culture medium was removed and the wells were carefully washed with PBS to eradicate planktonic bacteria. The wells were added with octopromycin (50 μg/mL (MIC) and 200 μg/mL (MBC)) and further cultured for 24 hours. The biofilm was stained with crystal violet for 30 minutes, washed three times with PBS, and dissolved in 95% ethanol, and the absorbance was measured at 495 nm using a microplate reader (Bio-Rad, USA).

[4] = MTT cytotoxicity assay in HEK293 cells; type: cell-based, human; conditions: HEK293T cells
Experimental: (§1) To measure the cytotoxicity of octopromycin on HEK293T (American Type Culture Collection ATCC-11268) and Raw 264.7 cells, the cells were treated with octopromycin and cell viability was evaluated. The cells were harvested, counted and seeded at a density of […] per well in a 96-well plate and cultured for 24 hours at 37° C. and 5% CO2. The cells were treated with different concentrations of octopromycin (0 to 800 μg/mL) and cultured for 24 hours. After culturing, the culture medium was replaced with a fresh medium, and 10 μL of MTT (5 mg/mL) was added to each well and incubated in a CO2 incubator for 4 hours. The formed formazan crystals were dissolved in 50 μL of DMSO and absorbance was measured at 570 nm using a microplate reader (Bio-Rad Laboratories, Inc, USA). Cells treated with the medium (control) were considered as 100% viability (control group), and current viability was normalized and calculated for the untreated control group.

[5] = system: HEK293T cells; assay: MTT cytotoxicity assay in HEK293 cells; type: cell-based, human
Experimental: as §1

[6] = system: A. baumannii; assay: A. baumannii-infected zebrafish model (viability, CFU, clinical signs); type: in vivo
Experimental: The effect of octopromycin as an antibacterial agent was confirmed using zebrafish as an animal model.
A total of 72 zebrafish (average weight: 0.35±0.05 g) were divided into 3 groups: (1) non-infected control group treated with PBS and water, (2) A. baumannii-infected group, and (3) A. baumannii-infected and octopromycin-treated group (octopromycin-treated group).
Zebrafish was anesthetized using system water containing 160 μg/mL of tricaine (ethyl 3-aminobenzoate methane sulfonate). The control group ((1) group) was injected with 10 μL of nucleous free water (NFW) and 20 μL of PBS using a Hamilton® syringe. The A. baumannii-infected group ((2) group) was injected intraperitoneally with 10 μL of NFW, and the octopromycin-treated group ((3) group) was injected intraperitoneally with 10 μL of octopromycin (10 μg/fish). Then, A. baumannii was injected intraperitoneally (0 hpi) in the A. baumannii-infected group and the octopromycin-treated group at a dose of 20 μ1 (3.4×10^11 CFU) per fish, and then injected every 2 hpi until 48 hpi. To confirm the antibacterial effect of octopromycin, fish mortality was recorded every 12 hpi and the viability of each group was examined.
In addition, the number of bacteria (CFU) in the kidneys and spleens of the control group and the infected zebrafish was observed. 3 fish from each group at the 80% mortality stage of the A. baumannii-infected group was selected, and then the spleen and the kidney were collected, and individual spleen and kidney tissues from each zebrafish were homogenized in PBS and the homogenates were serially diluted and loaded onto an agar plate (TSA) to measure A. baumannii CFU.

RRLIRTDTGPIIYDYFKDQLLKKGMVILRESMKNLKGM [octopromycin]
minimum bactericidal concentration (MBC) ([1]; subculture on TSA, 24 hours): 200 µg/mL | minimum inhibitory concentration (MIC) ([1]; visual growth): 50 µg/mL | morphological and ultrastructural changes (FE-SEM) [2]: severe membrane destruction; also recorded: caused ultrastructural cell wall deformation | reduction in biofilm (eradication) ([3]; MBC (200 μg/mL)): 64.2% | reduction in biofilm (eradication) ([3]; MIC (50 μg/mL)): 64.0% | viability at 24 h ([4]; human embryonic kidney 293T, concentration not given, read-out: cells alive): ≥ 85% | viability at 24 h, 400 µg/mL ([4]; human, HEK293, 400 μg/mL, 24 hours, read-out: cell viability): 85% | cell viability ([5]; HEK293, >400 μg/mL): significantly reduced | toxic effect ([5]; HEK293, MBC level (200 μg/mL)): no toxic effect | viability of infected zebrafish ([6]; 10 μg/fish intraperitoneally, 48 hours after A. baumannii infection): 37.5% | number of bacteria (CFU) in spleen and kidney ([6]; 10 μg/fish, rank among the three groups): second highest | external clinical signs (hemorrhage) ([6]; 10 μg/fish, vs A. baumannii-infected group): less hemorrhage

From patent US20230321187A1, “OCTOPUS-DERIVED PEPTIDE OCTOPROMYCIN HAVING ANTIBACTERIAL AND ANTI-BIOFILM ACTIVITY AGAINST ACINETOBACTER BAUMANNII” (priority 2020, published 2023)
